Reference: patent US8637684B2, “Tautomycetin and tautomycetin analog biosynthesis” (Wisconsin Alumni Research Foundation, priority 2010, dated 2014)

What was measured:
[1] = biological target: T1, Lyp (Homo sapiens, UniProt Q9Y2R2); assay: PTP activity assay with pNPP as substrate: Lyp; assay type: biochemical; details: pNPP as substrate at Km, pH 7.0, 25° C., I = 0.15 M
T1 sequence (Q9Y2R2 1-807): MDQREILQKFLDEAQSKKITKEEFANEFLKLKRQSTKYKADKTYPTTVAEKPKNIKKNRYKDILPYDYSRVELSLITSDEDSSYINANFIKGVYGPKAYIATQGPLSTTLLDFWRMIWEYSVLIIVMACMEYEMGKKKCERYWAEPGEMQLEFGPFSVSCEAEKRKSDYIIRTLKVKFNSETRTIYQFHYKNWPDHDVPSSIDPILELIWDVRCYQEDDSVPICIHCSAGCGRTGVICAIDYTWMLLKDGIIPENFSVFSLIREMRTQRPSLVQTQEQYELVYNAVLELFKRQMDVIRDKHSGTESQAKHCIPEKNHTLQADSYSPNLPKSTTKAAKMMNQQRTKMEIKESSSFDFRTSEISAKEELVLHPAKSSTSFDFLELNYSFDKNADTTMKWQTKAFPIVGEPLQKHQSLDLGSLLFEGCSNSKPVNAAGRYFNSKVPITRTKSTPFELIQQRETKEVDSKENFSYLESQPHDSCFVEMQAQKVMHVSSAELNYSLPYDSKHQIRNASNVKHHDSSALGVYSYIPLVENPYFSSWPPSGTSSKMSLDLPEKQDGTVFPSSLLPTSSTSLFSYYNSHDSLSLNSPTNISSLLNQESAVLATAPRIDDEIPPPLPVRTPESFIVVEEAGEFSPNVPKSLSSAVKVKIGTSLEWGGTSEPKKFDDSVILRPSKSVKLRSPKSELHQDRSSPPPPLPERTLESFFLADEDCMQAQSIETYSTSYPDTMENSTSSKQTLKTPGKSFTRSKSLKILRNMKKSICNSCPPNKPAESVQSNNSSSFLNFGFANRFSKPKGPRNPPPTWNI
Procedure: (§1) The PTP activity was assayed using pNPP as a substrate at 25° C. in 50 mM 3,3-dimethylglutarate buffer, pH 7.0, containing 1 mM EDTA with an ionic strength of 0.15 M adjusted by NaCl. TTM, TTN and the engineered analogs were analyzed for inhibition of a panel of PTPs at 10 μM compound concentration. For each enzyme screened, test compounds were diluted to 20 μM in 100 μL and combined with 50 μL pNPP at a concentration of 4×Km. The reaction was initiated by the addition of 50 μL of 4× concentrated enzyme and pNPP was allowed to convert to the product p-nitrophenol. The reaction was quenched by the addition of 50 μL of 5N NaOH. Nonenzymatic hydrolysis of pNPP was corrected by measuring the control without the addition of enzyme. Production of p-nitrophenol was monitored by a Spectra MAX385 microplate spectrophotometer (Molecular Devices) at 405 nm using a molar extinction coefficient of 18,000 M^−1 cm^−1. IC50 values were calculated by fitting the absorbance at 405 nm versus inhibitor concentration to the following equation: AI/A0=IC50/(IC50+[I]) where AI is the absorbance at 405 nm of the sample in the presence of inhibitor; Ao is the absorbance at 405 nm in the absence of inhibitor; and [I] is the concentration of the inhibitor.

[2] = biological target: PTPα (Homo sapiens, UniProt P18433); assay: PTP activity assay with pNPP as substrate: PTPα; assay type: biochemical; details: pNPP as substrate at Km, pH 7.0, 25° C., I = 0.15 M
PTPα, sequence (P18433 20-802): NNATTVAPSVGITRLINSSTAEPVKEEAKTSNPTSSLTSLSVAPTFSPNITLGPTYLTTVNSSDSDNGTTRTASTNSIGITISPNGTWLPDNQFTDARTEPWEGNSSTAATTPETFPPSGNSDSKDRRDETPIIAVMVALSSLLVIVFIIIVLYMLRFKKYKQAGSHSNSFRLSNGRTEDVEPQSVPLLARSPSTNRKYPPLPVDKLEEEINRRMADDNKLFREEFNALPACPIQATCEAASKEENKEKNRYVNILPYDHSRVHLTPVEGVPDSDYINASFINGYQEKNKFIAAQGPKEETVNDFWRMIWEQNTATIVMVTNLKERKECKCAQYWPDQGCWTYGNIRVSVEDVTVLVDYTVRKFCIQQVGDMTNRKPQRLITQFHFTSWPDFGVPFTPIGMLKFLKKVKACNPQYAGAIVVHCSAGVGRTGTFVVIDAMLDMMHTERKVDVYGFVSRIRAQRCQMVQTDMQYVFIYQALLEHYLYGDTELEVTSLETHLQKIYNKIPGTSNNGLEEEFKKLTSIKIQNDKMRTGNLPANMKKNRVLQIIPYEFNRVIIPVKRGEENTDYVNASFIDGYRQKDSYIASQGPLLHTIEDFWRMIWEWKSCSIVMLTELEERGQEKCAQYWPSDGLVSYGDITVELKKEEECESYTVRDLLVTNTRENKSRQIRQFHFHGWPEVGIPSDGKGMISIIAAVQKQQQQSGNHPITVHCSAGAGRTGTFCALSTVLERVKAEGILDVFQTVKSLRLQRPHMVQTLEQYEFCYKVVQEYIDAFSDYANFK
Procedure: as §1

[3] = biological target: T2, Cdc14A (Homo sapiens, UniProt Q9UNH5); assay: PTP activity assay with pNPP as substrate: Cdc14A; assay type: biochemical; details: pNPP as substrate at Km, pH 7.0, 25° C., I = 0.15 M
T2 sequence (Q9UNH5 1-594): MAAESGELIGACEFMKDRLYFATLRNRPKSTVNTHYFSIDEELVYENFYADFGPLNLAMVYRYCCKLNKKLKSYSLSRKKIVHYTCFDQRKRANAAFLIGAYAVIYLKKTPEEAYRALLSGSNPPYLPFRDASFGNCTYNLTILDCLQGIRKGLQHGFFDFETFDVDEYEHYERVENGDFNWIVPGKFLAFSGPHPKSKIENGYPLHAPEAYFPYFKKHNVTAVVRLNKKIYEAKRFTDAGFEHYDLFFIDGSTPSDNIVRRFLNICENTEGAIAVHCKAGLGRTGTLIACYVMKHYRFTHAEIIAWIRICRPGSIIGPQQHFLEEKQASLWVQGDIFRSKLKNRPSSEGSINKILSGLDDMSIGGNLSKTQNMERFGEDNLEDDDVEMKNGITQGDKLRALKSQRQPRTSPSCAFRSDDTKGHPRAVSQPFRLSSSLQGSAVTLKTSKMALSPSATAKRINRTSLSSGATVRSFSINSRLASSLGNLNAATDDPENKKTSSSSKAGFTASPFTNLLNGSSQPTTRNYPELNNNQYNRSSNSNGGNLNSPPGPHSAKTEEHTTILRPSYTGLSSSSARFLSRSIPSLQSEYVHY
Procedure: as §1

[4] = literature (Luo et al., 2007; Mitsuhashi et al., 2003, 2008); cited from earlier work
[5] = biological target: T3, PTP1B (Homo sapiens, UniProt P18031); assay: PTP activity assay with pNPP as substrate: PTP1B; assay type: biochemical; details: pNPP as substrate at Km, pH 7.0, 25° C., I = 0.15 M
T3 sequence (P18031 1-435): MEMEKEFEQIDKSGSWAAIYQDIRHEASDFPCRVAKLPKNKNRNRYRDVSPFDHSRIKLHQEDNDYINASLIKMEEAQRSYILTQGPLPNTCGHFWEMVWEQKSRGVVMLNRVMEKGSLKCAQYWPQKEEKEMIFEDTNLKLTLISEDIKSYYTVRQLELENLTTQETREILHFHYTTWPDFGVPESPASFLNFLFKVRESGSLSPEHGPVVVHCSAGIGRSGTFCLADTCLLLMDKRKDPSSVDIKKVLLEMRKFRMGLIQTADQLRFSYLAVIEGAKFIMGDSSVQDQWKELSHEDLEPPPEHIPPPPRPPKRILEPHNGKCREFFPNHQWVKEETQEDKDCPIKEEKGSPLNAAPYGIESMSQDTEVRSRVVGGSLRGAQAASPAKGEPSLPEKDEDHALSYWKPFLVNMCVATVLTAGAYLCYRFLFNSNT
Procedure: as §1

[6] = test system: TCR-mediated ERK1/2 activation in Jurkat T cells; assay: Anti-CD3 (TCR) induced ERK1/2 activation in Jurkat T cells, immunoblot; assay type: cell-based; details: 2 hours pretreatment, anti-CD3 stimulation
Procedure: Jurkat T cells were grown at 37° C. under an atmosphere of 5% CO2 in RPMI medium 1640 supplemented with 10% FBS. Cells were pretreated with different concentrations of TTN, TTN D-1, or TTM for 2 hours and stimulated with […] anti-CD3 antibody (OKT3; eBioscience) for 5 min and 30 min, respectively. Subsequently, cells were spinned down at 2000 rpm in 4° C., and cell pellets were lysed in 50 mM Tris-HCl (pH 7.5), 150 mM NaCl, 10% glycerol, 1% NP-40, 50 mM NaF, 10 mM pyrophosphate, 5 mM idoacetate, 1 mM sodium orthovanadate, and the protease inhibitor mixture. After 30 min lysing on ice, the cell lysates were centrifuged at 13,200 rpm for 15 min. Total cellular proteins were separated by SDS/PAGE and transferred electrophoretically to nitrocellulose membrane, which was immunoblotted by appropriate antibodies followed by incubation with HRP-conjugated secondary antibodies. Blots were developed using Pierce Pico ECL reagent (Thermo) according to the manufacturer's instructions.
TTN induces immunosuppression by suppression of TCR-mediated tyrosine phosphorylation and ERK1/2 activity in T cells (Shim et al., 2002). However, the mechanism of action for TTN's ability to block TCR signaling remains undefined. […]

[7] = test system: T cell proliferation; details: relative to cyclosporine A (CsA); cited from earlier work

tautomycetin [TTN] gave an IC50 [1] of 20 µM, an IC50 [2] of over 50 µM and an IC50 [3] of over 50 µM. The “concentrations required to exert a cellular effect” value [4] was 1 to 5 µM, the IC50 [5] was 40 µM and the “effect on TCR-mediated ERK1/2 activation” value [6] was “strongly reduced”. For the same substance, the “concentration for inhibition of T cell proliferation, lower than that for maximal inhibition by cyclosporine A” value [7] was 100 fold.
